Measured values as given in patent publication US7022311B1, “Powdery inhalational preparations and process for producing the same” (Kaken Pharmaceutical Co., Ltd., priority 1999, dated 2006).
Counter-ions that a name gives are not always drawn. Square brackets hold non-standard residues; d marks the D form. Peptide text beside a SMILES is read from it. d2Nal = N[C@H](Cc1ccc2ccccc2c1)C(=O)O

Assays:
Format in all cases: physicochemical
[1] = Dispersibility of active ingredient from carrier particles, laser diffraction particle size analyzer; settings: Example 17: S-36496 10%, micronized lactose 1%, carrier trehalose 89%, particles of 10 μm or less
[2] = In vitro lung delivery fraction test with multi-stage cascade impactor (Andersen sampler, Jethaler); settings: 28.3 L/min; for Residual and Distributed Fractions of Active Ingredient: Capsule / Residual and Distributed Fractions of Active Ingredient: Inhaler device / Residual and Distributed Fractions of Active Ingredient: Stage 0 / Residual and Distributed Fractions of Active Ingredient: Stage 1 / Residual and Distributed Fractions of Active Ingredient: Stages 2–7 / Residual and Distributed Fractions of Active Ingredient: Throat / Capsule, residual active ingredient / Inhaler device, residual active ingredient / Stage 0, distribution of active ingredient / Stage 1, distribution of active ingredient / Stages 2–7, lung delivery fraction / Throat, distribution of active ingredient: S-36496 10%
Procedure: Capsulated preparations (The Japanese Pharmacopeia No. 2 HPMC capsules: manufactured by Shionogi Qualicaps Co., Ltd.) which were filled with about 40 mg each of three dry powder inhalations were prepared and mounted on an inhaler device (Jethaler; Unisia Jecs Corp.) The Jethaler was then attached to the mouthpiece of a cascade impactor (Andersen sampler Model AN-200) and inspired at a flow rate of 28.3 L/min., thereby dispersing the micronized medication in the capsule and measuring the residual active ingredient in the capsule and in the inhaler device as well as the distribution of the active ingredient at each stage with liquid chromatography. It was confirmed that in the in vitro test with cascade impactor, the lung delivery fraction at stages 2–7 corresponding to the respiring fraction differed substantially depending on the different carrier particles.
(§1) Capsulated preparations (The Japanese Pharmacopeia No. 2HPMC capsules: manufactured by Shionogi Qualicaps Co., Ltd.), which were filled with about 40 mg each of three dry powder inhalations, were prepared and mounted on an inhaler device (Jethaler®; Unisia Jecs Corp.). The Jethaler® brand device was then attached to the mouthpiece of a cascade impactor (Andersen sampler; Model AN-200) and inspired at a flow rate of 28.3 L/min., thereby dispersing the dry powder inhalation in the capsule and measuring the residual active ingredient in the capsule and in the inhaler device as well as the distribution of the active ingredient at each stage with liquid chromatography.
(§2) A capsulated preparation (The Japanese Pharmacopeia No. 2HPMC capsules: manufactured by Shionogi Qualicaps Co., Ltd.) which was filled with about 40 mg of the prepared dry powder inhalations was prepared and mounted on an inhaler device (Jethaler; Unisia Jecs Corp.) The Jethaler was then attached to the mouthpiece of a cascade impactor (Andersen sampler; Model AN-200) and inspired at a flow rate of 28.3 L/min., thereby dispersing the dry powder inhalation in the capsule and measuring the residual active ingredient in the capsule and in the inhaler device as well as the distribution of the active ingredient at each stage with liquid chromatography.
as §1, with “A capsulated preparation (The” for “Capsulated preparations (The”, “which was” for “which were”, “mg” for “mg each”, “chromatography. […]” for “chromatography.”
as §2, with “2 HPMC” for “2HPMC”, “Ltd.)” for “Ltd.) which was”, “inhalation” for “inhalations”

[3] = Moisture absorption test (hygroscopic properties) of test carriers; settings: 25° C.
Procedure: For the objective of selecting a material suitable as the carrier for a dry powder inhalation, moisture absorption tests were performed on erythritol, xylitol, lactose, D-mannitol, Amalty, glucose, Stevia, Benecoat and aspartame. […] (Tables 1, 2, and 3)
In order to ascertain that trehalose is a material having properties suitable as a carrier for dry powder inhalations, it was compared to lactose, a well-known carrier for dry powder inhalation. A test was carried out for comparing hygroscopicity. The trehalose used was the product of Asahi Kasei Kogyo KK, and Lactose 325M from the DMV Company. […] (Table 4, 5)

[4] = Example 10: S-36496 3.2%, carrier lactose 95.8%, micronized lactose 1.0%
[5] = Example 17: S-36496 10%, micronized lactose 1%, carrier trehalose 89%, Vertical Granulator 5 min
[6] = micronized lactose 1%, carrier trehalose 89% of particle size 48.6 μm
[7] = micronized lactose 1%, carrier trehalose 89% of particle size 81.0 μm
[8] = micronized lactose 1%, carrier trehalose 89% of particle size 97.9 μm
[9] = micronized lactose 1%, erythritol carrier 89% of mean particle diameter 53.8 μm
[10] = micronized lactose 1%, erythritol carrier 89% of mean particle diameter 81.6 μm
[11] = micronized lactose 1%, erythritol carrier 89% of mean particle diameter 155.9 μm
[12] = Example 11: Pralmorelin dihydrochloride 5.0%, carrier erythritol 93.5%, micronized lactose 1.5%

Compound: CC(C)c1csc(COc2cccc(CN(CCCCNS(=O)(=O)c3ccc(Cl)cc3)S(=O)(=O)c3ccccc3C(=O)O)c2)n1 [Example S-36496, 2-{N-[4-(4-chlorobenzenesulfonylamino)butyl]-N-{3-[(4-isopropyl-2-thiazoyl)methoxy]benzyl}}sulfamoylbenzenolic acid]
- Dispersibility of drugs (active ingredient) (%) ([1]; Spray Pressure 0.2 kg/cm^2): 8.3%
- Dispersibility of drugs (active ingredient) (%) ([1]; Spray Pressure 0.3 kg/cm^2): 9.4%
- Residual and Distributed Fractions of Active Ingredient (%): Capsule [2, 4]: 8.2%
- Residual and Distributed Fractions of Active Ingredient (%): Inhaler device [2, 4]: 19.3%
- Residual and Distributed Fractions of Active Ingredient (%): Stage 0 [2, 4]: 19.5%
- Residual and Distributed Fractions of Active Ingredient (%): Stage 1 [2, 4]: 9.1%
- Residual and Distributed Fractions of Active Ingredient (%): Stages 2–7 [2, 4]: 18.2%
- Residual and Distributed Fractions of Active Ingredient (%): Throat [2, 4]: 25.7%
- Residual and Distributed Fractions of Active Ingredient (%): Capsule [2, 5]: 7.3%
- Residual and Distributed Fractions of Active Ingredient (%): Inhaler device [2, 5]: 19.4%
- Residual and Distributed Fractions of Active Ingredient (%): Stage 0 [2, 5]: 22.3%
- Residual and Distributed Fractions of Active Ingredient (%): Stage 1 [2, 5]: 5.8%
- Residual and Distributed Fractions of Active Ingredient (%): Stages 2–7 [2, 5]: 30.2%
- Residual and Distributed Fractions of Active Ingredient (%): Throat [2, 5]: 15.0%
- Residual and Distributed Fractions of Active Ingredient: Capsule [2, 6]: 9.0%
- Residual and Distributed Fractions of Active Ingredient: Inhaler device [2, 6]: 24.2%
- Residual and Distributed Fractions of Active Ingredient: Stage 0 [2, 6]: 24.7%
- Residual and Distributed Fractions of Active Ingredient: Stage 1 [2, 6]: 2.9%
- Residual and Distributed Fractions of Active Ingredient: Stages 2–7 [2, 6]: 6.4%
- Residual and Distributed Fractions of Active Ingredient: Throat [2, 6]: 32.8%
- Residual and Distributed Fractions of Active Ingredient: Capsule [2, 7]: 4.9%
- Residual and Distributed Fractions of Active Ingredient: Inhaler device [2, 7]: 19.1%
- Residual and Distributed Fractions of Active Ingredient: Stage 0 [2, 7]: 18.4%
- Residual and Distributed Fractions of Active Ingredient: Stage 1 [2, 7]: 2.0%
- Residual and Distributed Fractions of Active Ingredient: Stages 2–7 [2, 7]: 31.4%
- Residual and Distributed Fractions of Active Ingredient: Throat [2, 7]: 24.2%
- Residual and Distributed Fractions of Active Ingredient: Capsule [2, 8]: 5.8%
- Residual and Distributed Fractions of Active Ingredient: Inhaler device [2, 8]: 25.1%
- Residual and Distributed Fractions of Active Ingredient: Stage 0 [2, 8]: 18.2%
- Residual and Distributed Fractions of Active Ingredient: Stage 1 [2, 8]: 5.8%
- Residual and Distributed Fractions of Active Ingredient: Stages 2–7 [2, 8]: 17.9%
- Residual and Distributed Fractions of Active Ingredient: Throat [2, 8]: 27.2%
- Capsule, residual active ingredient [2, 9]: 3.0%
- Inhaler device, residual active ingredient [2, 9]: 18.2%
- Stage 0, distribution of active ingredient [2, 9]: 28.9%
- Stage 1, distribution of active ingredient [2, 9]: 3.5%
- Stages 2–7, lung delivery fraction [2, 9]: 24.4%
- Throat, distribution of active ingredient [2, 9]: 22.0%
- Capsule, residual active ingredient [2, 10]: 2.6%
- Inhaler device, residual active ingredient [2, 10]: 14.6%
- Stage 0, distribution of active ingredient [2, 10]: 21.8%
- Stage 1, distribution of active ingredient [2, 10]: 3.8%
- Stages 2–7, lung delivery fraction [2, 10]: 40.4%
- Throat, distribution of active ingredient [2, 10]: 16.9%
- Capsule, residual active ingredient [2, 11]: 2.5%
- Inhaler device, residual active ingredient [2, 11]: 2.9%
- Stage 0, distribution of active ingredient [2, 11]: 66.4%
- Stage 1, distribution of active ingredient [2, 11]: 15.2%
- Stages 2–7, lung delivery fraction [2, 11]: 11.3%
- Throat, distribution of active ingredient [2, 11]: 1.7%

Compound: C[C@H](NC(=O)[C@@H](Cc1ccc2ccccc2c1)NC(=O)[C@@H](C)N)C(=O)N[C@@H](Cc1c[nH]c2ccccc12)C(=O)N[C@H](Cc1ccccc1)C(=O)N[C@@H](CCCCN)C(N)=O [Pralmorelin dihydrochloride, reference compound] (H-[dA][d2Nal]AW[dF]K-NH2)
- Residual and Distributed Fractions of Active Ingredient (%): Capsule [2, 12]: 3.6%
- Residual and Distributed Fractions of Active Ingredient (%): Inhaler device [2, 12]: 11.5%
- Residual and Distributed Fractions of Active Ingredient (%): Stage 0 [2, 12]: 7.7%
- Residual and Distributed Fractions of Active Ingredient (%): Stage 1 [2, 12]: 26.6%

Compound: OC[C@H]1O[C@@H](O[C@H]2[C@H](O)[C@@H](O)C(O)O[C@@H]2CO)[C@H](O)[C@@H](O)[C@H]1O (stereo partly shown) [Lactose 325M, Lactose]
- % Moisture Absorption ([3]; Table 1, Humidity 60%, 24 Hours): 0.000%
- % Moisture Absorption ([3]; Table 1, Humidity 60%, 72 Hours): 0.000%
- % Moisture Absorption ([3]; Table 1, Humidity 60%, 168 Hours): 0.000%
- % Moisture Absorption ([3]; Table 1, Humidity 60%, 366 Hours): 0.000%
- % Moisture Absorption ([3]; Table 2, Humidity 75%, 24 Hours): 0.029%
- % Moisture Absorption ([3]; Table 2, Humidity 75%, 72 Hours): 0.031%
- % Moisture Absorption ([3]; Table 2, Humidity 75%, 168 Hours): 0.033%
- % Moisture Absorption ([3]; Table 2, Humidity 75%, 336 Hours): 0.031%
- % Moisture Absorption ([3]; Table 3, Humidity 90%, 24 Hours): 0.094%
- % Moisture Absorption ([3]; Table 3, Humidity 90%, 72 Hours): 0.090%
- % Moisture Absorption ([3]; Table 3, Humidity 90%, 168 Hours): 0.092%
- % Moisture Absorption ([3]; Table 4, Humidity 60%, 24 Hours): 0.000%
- % Moisture Absorption ([3]; Table 4, Humidity 60%, 72 Hours): 0.000%
- % Moisture Absorption ([3]; Table 4, Humidity 60%, 168 Hours): 0.000%
- % Moisture Absorption ([3]; Table 4, Humidity 60%, 366 Hours): 0.000%
- % Moisture Absorption ([3]; Table 5, Humidity 75%, 16 Hours): 0.029%
- % Moisture Absorption ([3]; Table 5, Humidity 75%, 48 Hours): 0.031%
- % Moisture Absorption ([3]; Table 5, Humidity 75%, 72 Hours): 0.033%
- % Moisture Absorption ([3]; Table 5, Humidity 75%, 168 Hours): 0.031%
